Results published in patent US10517849B2, “LSD1 inhibitors and medical uses thereof” (Constellation Pharmaceuticals, Inc., priority 2016, dated 2019).
Counter-ions that a name gives are not always drawn.

What was measured:
[1] = tested on: Kasumi-1; experiment: Kasumi-1 GI50 Assay; assay type: cell-based; details: Homo sapiens, 288 h; Kasumi-1 cells, 12 days, Cell Titer-Glo viability
Method: Cells were plated at 5,000 cells per well in 96 well tissue culture dishes containing tool compounds arrayed in a 10-point dose curve, ranging from […] with 4-fold dilutions, and split every fourth day at a fixed ratio to re-establish 5,000 cells/well density for DMSO-treated controls. Cell treatments were carried out for a total of 12 days. At each 4-day split, the viable cell numbers were determined using the Cell Titer-Glo luminescent cell viability assay (Promega, Madison, Wis. USA) using an EnVision® Multilabel Plate Reader (Perkin Elmer, Waltham, Mass. USA). GraphPad Prism 6 (GraphPad Software, Inc., La Jolla, Calif. USA) was used for curve fitting and determination of GI50 values.

[2] = target: LSD1 (Homo sapiens (Human), UniProt O60341); experiment: LSD1 TR-FRET Assay; assay type: biochemical; details: biotinylated H3K4me1 peptide 4 μM, 10 nM LSD1, 40 nM FAD, 50 minutes at room temperature
Method: LSD1 demethylase reactions were carried out in 50 mM HEPES pH 7.4, 100 mM NaCl, 1 mM DTT, 0.01% Tween-20, and 0.1 mg/mL BSA. All enzymatic reactions were performed for 50 minutes at room temperature in a 10-μL volume. Five microliters of 8 μM biotinylated H3K4me1 peptide solution was added to each well of a black 384 well, clear-bottom assay plate containing 80 nL compound (final concentration of 0.8% DMSO and 4 μM substrate). Reactions were initiated by the addition of a mixture containing 20 nM LSD1 and 80 nM FAD (5 μL). LSD1 and FAD final concentrations were 10 and 40 nM, respectively. Enzyme activity was stopped by the addition of 90 μL of high salt buffer consisting of 50 mM HEPES pH 7.4, 500 mM NaCl, 1 mM DTT, 0.01% Tween-20, and 0.1 mg/mL BSA. Ten microliters of the quenched reaction mixtures were transferred to a black 384 well ProxiPlate. Ten microliters of detection mixture was added to the ProxiPlate, Europium-labeled antibody and Streptavidin APC were used at final concentrations of 0.3 nM and 200 nM, respectively (total assay volume of 20 μL). Capture of the product peptide by the anti-H3K4me0 antibody and Streptavidin APC was allowed to proceed for 60 min at room temperature before measuring the TR-FRET signal. Plates were read on a Perkin Elmer EnVision. Percent inhibition was calculated using Max (no inhibitor) and Min (quenched with stop buffer) controls and inhibition curves plotted to determine IC50 values.

[3] = tested on: LY-96 mRNA induction in MV4-11 cells; experiment: LSD1 LY96 Quantigene Assay; assay type: cell-based; details: Homo sapiens, 16 h, Quantigene 2.0
Method: MV4-11 cells were cultured at a density of 4×10^4 cells per well in a 96-well plates and treated with various doses inhibitor starting from 10 μM up to 0.0005 μM for 16 h. The LY-96 mRNA induction was quantified using the Quantigene 2.0 system (Affymetrix). The cells were lysed with Lysis Mixture containing Proteinase K. The working reagent for capturing the RNA was prepared according to the steps detailed in “Capturing Target RNA from Cultured Cell or Blood Lysates” in the Quantigene handbook. The subsequent hybridization with LY-96 probe, signal amplification and detection steps were performed as described in the manual. The chemiluminescence was read using Envision (PerkinElmer) and Abase (IDBS software) was used to plot the dose response curves and calculate IC50.

CC/C(=C\c1ccccc1)[C@@H]1C[C@H]1NC1CC2(C1)CN(CCC(N)=O)C2 [Compound 22, 3-(6-(((1R,2S)-2-((E)-1-phenylbut-1-en-2-yl)cyclopropyl)amino)-2-azaspiro[3.3]heptan-2-yl)propanamide bis(2,2,2-trifluoroacetate)]
< 100 nM: GI50 [1] | IC50 [2] | EC50 [3]

CC/C(=C\c1ccccc1)[C@@H]1C[C@H]1NC1CC2(C1)CN(CCNS(C)(=O)=O)C2 [Compound 4, N-(2-(6-(((1R,2S)-2-((E)-1-phenylbut-1-en-2-yl)cyclopropyl)amino)-2-azaspiro[3.3]heptan-2-yl)ethyl)methanesulfonamide bis(2,2,2-trifluoroacetate)]
< 100 nM: GI50 [1] | IC50 [2] | EC50 [3]

CC/C(=C\c1ccccc1)[C@@H]1C[C@H]1NC1CC2(CCN(CCOC)CC2)C1 [Compound 17, 7-(2-methoxyethyl)-N-((1R,2S)-2-((E)-1-phenylbut-1-en-2-yl)cyclopropyl)-7-azaspiro[3.5]nonan-2-amine dihydrochloride]
< 100 nM: GI50 [1] | IC50 [2] | EC50 [3]

CC/C(=C\c1ccccc1)[C@@H]1C[C@H]1NC1CC2(C1)CN(CC(=O)NCCO)C2 [Compound 13, N-(2-hydroxyethyl)-2-(6-(((1R,2S)-2-((E)-1-phenylbut-1-en-2-yl)cyclopropyl)amino)-2-azaspiro[3.3]heptan-2-yl)acetamide bis(2,2,2-trifluoroacetate)]
< 100 nM: GI50 [1] | IC50 [2] | EC50 [3]

CC/C(=C\c1ccccc1)[C@@H]1C[C@H]1NC1CC2(CCN(CCO)CC2)C1 [Compound 11, 2-(2-(((1R,2S)-2-((E)-1-phenylbut-1-en-2-yl)cyclopropyl)amino)-7-azaspiro[3.5]nonan-7-yl)ethanol dihydrochloride]
< 100 nM: GI50 [1] | IC50 [2] | EC50 [3]
